Experiments:
AVEFA [1] = assay: Post-emergence herbicidal action against AVEFA; format: in vivo, Avena fatua; conditions: 80 g/ha, visual assessment after about 3 weeks
Procedure: (§1) Seeds of monocotyledonous and dicotyledonous weed and crop plants are laid out in sandy loam soil in wood-fiber pots, covered with soil and cultivated in a greenhouse under good growth conditions. 2 to 3 weeks after sowing, the test plants are treated at the one-leaf stage. The compounds of the invention, formulated in the form of wettable powders (WP) or as emulsion concentrates (EC), are then sprayed onto the green parts of the plants as aqueous suspension or emulsion at a water application rate equating to 600 to 800 l/ha with addition of 0.2% wetting agent. After the test plants have been left to stand in the greenhouse under optimal growth conditions for about 3 weeks, the action of the preparations is assessed visually in comparison to untreated controls (herbicidal action in percent (%): 100% activity=the plants have died, 0% activity=like control plants).

SETVI [2] = assay: Post-emergence herbicidal action against SETVI; format: in vivo, Setaria viridis; conditions: 80 g/ha, visual assessment about 3 weeks after treatment vs untreated controls
Procedure: as §1

DIGSA [3] = assay: Pre-emergence herbicidal action against DIGSA; format: in vivo, Digitaria sanguinalis; conditions: 320 g/ha, scored visually after 3 weeks vs untreated controls
Source text: (§2) Seeds of monocotyledonous and dicotyledonous weed plants and crop plants are laid out in sandy loam soil in wood-fiber pots and covered with soil. The compounds of the invention, formulated in the form of wettable powders (WP) or as emulsion concentrates (EC), are then applied to the surface of the covering soil as aqueous suspension or emulsion at a water application rate equating to 600 to 800 L/ha with addition of 0.2% wetting agent.
(§3) After the treatment, the pots are placed in a greenhouse and kept under good growth conditions for the trial plants. The damage to the test plants is scored visually after a test period of 3 weeks by comparison with untreated controls (herbicidal activity in percent (%): 100% activity=the plants have died, 0% activity=like control plants).

DIGSA [4] = assay: Post-emergence herbicidal action against DIGSA; format: in vivo, Digitaria sanguinalis; conditions: 80 g/ha, visual assessment about 3 weeks after treatment vs untreated controls
Procedure: as §1

SETVI [5] = assay: Pre-emergence herbicidal action against SETVI; format: in vivo, Setaria viridis; conditions: 320 g/ha, scored visually after 3 weeks vs untreated controls
Source text: as §2, §3

ECHCG [6] = assay: Post-emergence herbicidal action against ECHCG; format: in vivo, Echinochloa crus-galli; conditions: 80 g/ha, visual assessment about 3 weeks after treatment vs untreated controls
Procedure: as §1

LOLRI [7] = assay: Post-emergence herbicidal action against LOLRI; format: in vivo, Lolium rigidum; conditions: 80 g/ha, visual assessment about 3 weeks after treatment vs untreated controls
Procedure: as §1

ALOMY [8] = assay: Post-emergence herbicidal action against ALOMY; format: in vivo, Alopecurus myosuroides; conditions: 80 g/ha, visual assessment after about 3 weeks
Procedure: as §1

LOLRI [9] = assay: Pre-emergence herbicidal action against LOLRI (Table 8, titled post-emergence at 320 g/ha); format: in vivo, Lolium rigidum; conditions: table stands in the pre-emergence section
Source text: as §2, §3

ALOMY [10] = assay: Pre-emergence herbicidal action against ALOMY; format: in vivo, Alopecurus myosuroides; conditions: 320 g/ha, scored visually after 3 weeks vs untreated controls
Source text: as §2, §3

ECHCG [11] = assay: Pre-emergence herbicidal action against ECHCG; format: in vivo, Echinochloa crus-galli; conditions: 320 g/ha, scored visually after 3 weeks vs untreated controls
Source text: as §2, §3

AVEFA [12] = assay: Pre-emergence herbicidal action against AVEFA; format: in vivo, Avena fatua; conditions: 320 g/ha, scored visually after 3 weeks vs untreated controls
Source text: as §2, §3

| SMILES | Post-emergence action against AVEFA in % (AVEFA [1]) [%] | Post-emergence action against SETVI in % (SETVI [2]) [%] | Pre-emergence action against DIGSA in % (DIGSA [3]) [%] | Post-emergence action against DIGSA in % (DIGSA [4]) [%] | Pre-emergence action against SETVI in % (SETVI [5]) [%] | Post-emergence action against ECHCG in % (ECHCG [6]) [%] | Post-emergence action against LOLRI in % (LOLRI [7]) [%] | Post-emergence action against ALOMY in % (ALOMY [8]) [%] | Pre-emergence herbicidal action against LOLRI in % (LOLRI [9]) [%] | Pre-emergence action against ALOMY in % (ALOMY [10]) [%] | Pre-emergence action against ECHCG in % (ECHCG [11]) [%] | Pre-emergence action against AVEFA in % (AVEFA [12]) [%] |
| --- | --- | --- | --- | --- | --- | --- | --- | --- | --- | --- | --- | --- |
| CC#Cc1cc(C)c(C2=C(O)C3(CCC(COC)C3)NC2=O)c(F)c1 (centres unmarked) [Example I-34] | 90 | 100 | 100 | 100 | 100 | 100 | 100 | 100 | 100 |  |  |  |
| CC#Cc1cc(C)c(C2=C(O)C3(CCC(COCC)C3)NC2=O)c(F)c1 (centres unmarked) [Example I-37] | 100 | 100 | 90 | 100 | 100 | 100 | 90 | 100 | 100 | 80 | 100 |  |
| CC#Cc1cc(F)c(C2=C(O)C3(CCC(COCC)C3)NC2=O)c(OC)c1 (centres unmarked) [Example I-43] | 90 | 100 | 100 |  | 100 | 100 | 90 | 100 | 100 | 100 | 100 | 100 |
| C=CCOCC1CCC2(C1)NC(=O)C(c1c(F)cc(C#CC)cc1OC)=C2O (centres unmarked) [Example I-54] |  | 100 | 100 |  | 100 | 100 | 90 | 100 | 100 | 100 | 100 | 80 |
| CC#Cc1cc(F)c(C2=C(O)C3(CCC(COCCC)C3)NC2=O)c(OC)c1 (centres unmarked) [Example I-56] | 90 | 100 | 100 | 90 | 100 | 100 | 80 | 90 | 100 | 80 | 100 |  |
| CC#Cc1cc(F)c(C2=C(O)C3(CCC(COCCC)C3)NC2=O)c(OC)c1 (centres unmarked) [Example I-57] |  | 100 | 100 | 90 | 100 | 100 | 80 |  | 100 | 100 | 100 |  |
| CC#Cc1cc(Br)c(C2=C(O)C3(CCC(COCC)C3)NC2=O)c(OCC)c1 (centres unmarked) [Example I-63] | 80 | 100 | 100 | 90 | 100 | 100 | 90 | 100 | 100 | 100 | 100 | 100 |
| CC#Cc1cc(Br)c(C2=C(O)C3(CCC(COCC)C3)NC2=O)c(OCC)c1 (centres unmarked) [Example I-64] | 80 | 100 | 100 | 80 | 100 | 100 | 90 | 90 | 100 | 100 | 100 | 80 |
| CC#Cc1cc(Br)c(C2=C(OC(=O)C(C)C)C3(CCC(COC)C3)NC2=O)c(CC)c1 (centres unmarked) [Example P-45] |  |  |  |  | 80 |  |  |  |  |  |  |  |
| C=CCOCC1CCC2(C1)NC(=O)C(c1c(C)cc(C#CC)cc1OC)=C2OC(=O)OCC (centres unmarked) [Example P-68] | 90 | 100 | 100 | 90 | 100 | 100 | 90 | 100 | 100 | 100 | 100 |  |
| C=CCOCC1CCC2(C1)NC(=O)C(c1c(F)cc(C#CC)cc1OC)=C2OC(=O)OCC (centres unmarked) [Example P-78] |  | 100 | 100 | 90 | 100 | 100 |  | 100 | 100 | 100 | 100 |  |
| CC#Cc1cc(Br)c(C2=C(OC(=O)OCC)C3(CCC(COC)C3)NC2=O)c(OCC)c1 (centres unmarked) [Example P-94] |  | 100 | 100 | 80 | 100 | 100 | 90 |  | 100 | 100 | 100 | 100 |

— patent US20220386606A1, “SPECIFICALLY SUBSTITUTED 3-PHENYL-5-SPIROCYCLOPENTYL-3-PYRROLIN-2-ONES AND THEIR USE AS HERBICIDES” (Bayer Aktiengesellschaft, priority 2019, published 2022)
